The values that follow come from patent US20190322676A1, “CERAMIDE GALACTOSYLTRANSFERASE INHIBITORS FOR THE TREATMENT OF DISEASE” (BioMarin Pharmaceutical Inc., priority 2016, published 2019).

In this experiment the target is T1, human CGT (ceramide galactosyltransferase), CHO/CGT lysate (Homo sapiens, UniProt Q16880).
T1 construct: Full-length human CGT cDNA was cloned into the BamH1/Xho1 site of pcDNA3.1 (+); expressed in transfected cells; host or cells: Chinese hamster ovary (CHO) cells; lysate prepared with M-PER
T1 sequence (Q16880 21-541): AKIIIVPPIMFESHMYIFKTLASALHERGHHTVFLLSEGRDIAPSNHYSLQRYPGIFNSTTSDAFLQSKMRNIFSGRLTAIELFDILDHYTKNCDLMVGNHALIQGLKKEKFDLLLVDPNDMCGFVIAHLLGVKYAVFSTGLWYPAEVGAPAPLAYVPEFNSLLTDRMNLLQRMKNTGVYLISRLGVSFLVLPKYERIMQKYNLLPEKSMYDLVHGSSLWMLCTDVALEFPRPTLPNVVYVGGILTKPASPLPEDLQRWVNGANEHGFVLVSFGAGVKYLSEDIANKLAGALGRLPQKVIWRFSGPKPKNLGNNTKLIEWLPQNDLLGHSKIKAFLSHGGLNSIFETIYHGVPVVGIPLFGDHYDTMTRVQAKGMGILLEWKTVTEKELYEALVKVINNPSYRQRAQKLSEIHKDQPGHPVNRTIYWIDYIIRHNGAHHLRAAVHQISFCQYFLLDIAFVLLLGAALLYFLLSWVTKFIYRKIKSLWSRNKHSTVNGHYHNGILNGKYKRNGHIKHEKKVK
The experiment is described as follows: CGT enzyme assay, RapidFire/MS/MS readout (Table 1 ranges with one asterisk *). The format is biochemical. To be noted: RapidFire method (range with one asterisk *). An outline of the steps: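 IC50s come from variable-slope dose-response fits of internal-standard-normalized C6-NBD-dihydro-galactosylceramide, measured by RapidFire/MS/MS (ESI negative). Reactions: 1 h, 37 °C, human CGT-expressing CHO lysate (4 μg), 0.001–50 μM compound, 10 μM NBD-dihydro-ceramide, 17.5 μM UDP-galactose, 0.5% DMSO, pH 7.2; 0.01% Tween 80 added for ** values.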
For `CCCCOc1cc(C(F)(F)[C@@H](NS(=O)(=O)c2ccc3cc(OC4CCCC4)ccc3c2)C(=O)N2C3CCC2CC(N)C3)ccc1Cl` (stereo partly drawn) [Compound 118-2, N-((2S)-3-(3-amino-8-azabicyclo[3.2.1]octan-8-yl)-1-(3-butoxy-4-chlorophenyl)-1,1-difluoro-3-oxopropan-2-yl)-6-(cyclopentyloxy) naphthalene-2-sulfonamide], the IC50 lay within 1000 to 10000 nM.

`CCCCOc1cc(C(F)(F)[C@H](NS(=O)(=O)c2ccc(OCC3CCCCC3)cc2)C(=O)N2C3CCC2CC(N)C3)ccc1Cl` (stereo partly drawn) [Compound 120-1, N-((2R)-3-(3-amino-8-azabicyclo[3.2.1]octan-8-yl)-1-(3-butoxy-4-chlorophenyl)-1,1-difluoro-3-oxopropan-2-yl)-4-(cyclohexylmethoxy) benzenesulfonamide] came in with a half-maximal inhibitory concentration (IC50) of less than 1000 nM.

`CCCCOc1cc(C(F)(F)[C@@H](NS(=O)(=O)c2ccc(OCC3CCCCC3)cc2)C(=O)N2C3CCC2CC(N)C3)ccc1Cl` (stereo partly drawn) [Compound 120-2, N-((2S)-3-(3-amino-8-azabicyclo[3.2.1]octan-8-yl)-1-(3-butoxy-4-chlorophenyl)-1,1-difluoro-3-oxopropan-2-yl)-4-(cyclohexylmethoxy)benzenesulfonamide] came in with an IC50 of 1000 to 10000 nM.

Consider `NC1CC2CCC(C1)N2C(=O)[C@@H](NS(=O)(=O)c1ccc2cc(OC3CCCC3)ccc2c1)C(F)(F)c1ccc(Oc2ccc(Cl)cc2)cc1` (stereo partly drawn) [Compound 121-1, N-((2R)-3-(3-amino-8-azabicyclo[3.2.1]octan-8-yl)-1-(4-(4-chlorophenoxy)phenyl)-1,1-difluoro-3-oxopropan-2-yl)-6-(cyclopentyloxy) naphthalene-2-sulfonamide], for which the IC50 was less than 1000 nM.

The compound `NC1CC2CCC(C1)N2C(=O)[C@H](NS(=O)(=O)c1ccc2cc(OC3CCCC3)ccc2c1)C(F)(F)c1ccc(Oc2ccc(Cl)cc2)cc1` (stereo partly drawn) [Compound 121-2, N-((2S)-3-(3-amino-8-azabicyclo[3.2.1]octan-8-yl)-1-(4-(4-chlorophenoxy)phenyl)-1,1-difluoro-3-oxopropan-2-yl)-6-(cyclopentyloxy)naphthalene-2-sulfonamide] yielded an IC50 of 1000 to 10000 nM.

With `N[C@@H]1CCCN(C(=O)[C@@H](NS(=O)(=O)c2ccc3cc(OC4CCCC4)ccc3c2)C(F)(F)c2ccc(Br)cc2)C1` [Compound 122-1, N—((R)-3-((R)-3-aminopiperidin-1-yl)-1-(4-bromophenyl)-1,1-difluoro-3-oxopropan-2-yl)-6-(cyclopentyloxy)naphthalene-2-sulfonamide], the IC50 fell in the range of 1000 to 10000 nM.

In turn, `N[C@@H]1CCCN(C(=O)[C@H](NS(=O)(=O)c2ccc3cc(OC4CCCC4)ccc3c2)C(F)(F)c2ccc(Br)cc2)C1` [Compound 122-2, N—((S)-3-((R)-3-aminopiperidin-1-yl)-1-(4-bromophenyl)-1,1-difluoro-3-oxopropan-2-yl)-6-(cyclopentyloxy)naphthalene-2-sulfonamide] gave an IC50 of 30000 to 100000 nM.

`COc1cc(C(F)(F)[C@H](NS(=O)(=O)c2ccc3cc(OC4CCCC4)ccc3c2)C(=O)N2CCC(N)CC2)ccc1Cl` [Compound 123-1, (R)—N-(3-(4-aminopiperidin-1-yl)-1-(4-chloro-3-methoxyphenyl)-1,1-difluoro-3-oxopropan-2-yl)-6-(cyclopentyloxy)naphthalene-2-sulfonamide] registered an IC50 of less than 1000 nM.

Regarding `COc1cc(C(F)(F)[C@@H](NS(=O)(=O)c2ccc3cc(OC4CCCC4)ccc3c2)C(=O)N2CCC(N)CC2)ccc1Cl` [Compound 123-2, (S)—N-(3-(4-aminopiperidin-1-yl)-1-(4-chloro-3-methoxyphenyl)-1,1-difluoro-3-oxopropan-2-yl)-6-(cyclopentyloxy)naphthalene-2-sulfonamide], the IC50 is 1000 to 10000 nM.

`COc1cc(C(F)(F)[C@H](NS(=O)(=O)c2ccc3cc(OC4CCCC4)ccc3c2)C(=O)N2C3CCC2CC(N)C3)ccc1Cl` (stereo partly drawn) [Compound 124-1, N-((2R)-3-(3-amino-8-azabicyclo[3.2.1]octan-8-yl)-1-(4-chloro-3-methoxyphenyl)-1,1-difluoro-3-oxopropan-2-yl)-6-(cyclopentyloxy)naphthalene-2-sulfonamide]: the IC50 was less than 1000 nM.

As to `COc1cc(C(F)(F)[C@H](NS(=O)(=O)c2ccc(OCC3CCCCC3)cc2)C(=O)N2C3CCC2CC(N)C3)ccc1Cl` (stereo partly drawn) [Compound 125-1, N-((2R)-3-(3-amino-8-azabicyclo[3.2.1]octan-8-yl)-1-(4-chloro-3-methoxyphenyl)-1,1-difluoro-3-oxopropan-2-yl)-4-(cyclohexylmethoxy) benzenesulfonamide], the IC50 is less than 1000 nM.

`COc1cc(C(F)(F)[C@@H](NS(=O)(=O)c2ccc(OCC3CCCCC3)cc2)C(=O)N2C3CCC2CC(N)C3)ccc1Cl` (stereo partly drawn) [Compound 125-2, N-((2S)-3-(3-amino-8-azabicyclo[3.2.1]octan-8-yl)-1-(4-chloro-3-methoxyphenyl)-1,1-difluoro-3-oxopropan-2-yl)-4-(cyclohexylmethoxy)benzenesulfonamide] yielded an IC50 of 10000 to 30000 nM.

For `CCCCOc1cc(C(F)(F)[C@H](NS(=O)(=O)c2ccc3cc(OC4CCCC4)ccc3c2)C(=O)N2CCC(N)CC2)ccc1Cl` [Compound 126-1, (R)—N-(3-(4-aminopiperidin-1-yl)-1-(3-butoxy-4-chlorophenyl)-1,1-difluoro-3-oxopropan-2-yl)-6-(cyclopentyloxy)naphthalene-2-sulfonamide], the concentration for half-maximal inhibition (IC50) was less than 1000 nM.

In turn, `CCCCOc1cc(C(F)(F)[C@@H](NS(=O)(=O)c2ccc3cc(OC4CCCC4)ccc3c2)C(=O)N2CCC(N)CC2)ccc1Cl` [Compound 126-2, (S)—N-(3-(4-aminopiperidin-1-yl)-1-(3-butoxy-4-chlorophenyl)-1,1-difluoro-3-oxopropan-2-yl)-6-(cyclopentyloxy)naphthalene-2-sulfonamide] had an IC50 of 1000 to 10000 nM.

The compound `CCCCOc1cc(C(F)(F)[C@H](NS(=O)(=O)c2ccc(OCC3CCCCC3)cc2)C(=O)N2CCC(N)CC2)ccc1Cl` [Compound 127-1, (R)—N-(3-(4-aminopiperidin-1-yl)-1-(3-butoxy-4-chlorophenyl)-1,1-difluoro-3-oxopropan-2-yl)-4-(cyclohexylmethoxy)benzenesulfonamide] came in with an IC50 of less than 1000 nM.

As to `CCCCOc1cc(C(F)(F)[C@@H](NS(=O)(=O)c2ccc(OCC3CCCCC3)cc2)C(=O)N2CCC(N)CC2)ccc1Cl` [Compound 127-2, (S)—N-(3-(4-aminopiperidin-1-yl)-1-(3-butoxy-4-chlorophenyl)-1,1-difluoro-3-oxopropan-2-yl)-4-(cyclohexylmethoxy)benzenesulfonamide], the IC50 is 1000 to 10000 nM.

In turn, `COc1cc(C(F)(F)[C@H](NS(=O)(=O)c2ccc(OCC3CCCCC3)cc2)C(=O)N2C3CCC2CC(N)C3)ccc1Br` (stereo partly drawn) [Compound 128-1, N-((2R)-3-(3-amino-8-azabicyclo[3.2.1]octan-8-yl)-1-(4-bromo-3-methoxyphenyl)-1,1-difluoro-3-oxopropan-2-yl)-4-(cyclohexylmethoxy) benzenesulfonamide] gave an IC50 of less than 1000 nM.

Take `COc1cc(C(F)(F)[C@@H](NS(=O)(=O)c2ccc(OCC3CCCCC3)cc2)C(=O)N2C3CCC2CC(N)C3)ccc1Br` (stereo partly drawn) [Compound 128-2, N-((2S)-3-(3-amino-8-azabicyclo[3.2.1]octan-8-yl)-1-(4-bromo-3-methoxyphenyl)-1,1-difluoro-3-oxopropan-2-yl)-4-(cyclohexylmethoxy)benzenesulfonamide]: the IC50 fell in the range of 1000 to 10000 nM.
